Results reported in US20130309380A1, “METHODS FOR PRESERVING FRESH PRODUCE” (NatureSeal, Inc., priority 2003, published 2013).

Tests used:
Bramley apples [1] = experiment: Evaluation of sliced Bramley apples: appearance by visual inspection, firmness by bending
Method: (§1) The firmness of the produce in Example 11a were evaluated by bending produce samples. Appearance was evaluated by visual inspection. The moisture was evaluated by measuring the amount of water the produce released.
(§2) Whole Bramley apples free from blemishes or bruises, were rinsed with water, sanitized with a sodium hypochlorite solution having 100 parts per million available chlorine, for two minutes, then peeled, cored, and sliced. The sliced apples were dipped into a fresh produce preservative solution that contained 5.12% strontium ascorbate; the fresh produce preservative solution contained 4.12% ascorbic acid and 1.79% […], for about 30 to 60 seconds. The apples were then drained in a colander for one minute. The apple slices and the colander were placed in 500 micron plastic bags from SunSet Packaging, stored at 4° C. and evaluated several times over a 15 day period. Water which collected in the plastic bag was removed and weighed.
(§3) For comparison, similarly prepared apple slices were placed in one of several solutions that contained either: 4.3% ascorbic acid and 1.13% hydrated MgCO3, specifically 4MgCO3.Mg(OH)25H2O or a 5.0% w/w aqueous solution of calcium ascorbate dihydrate, having a pH of 7.2; or a 5.3% w/w solution, of 4.12% ascorbic acid and 1.17% calcium carbonate,; or 6% ascorbic acid having a pH of 2.3; or 48 g ascorbic acid, 48 g citric acid, 16 g CaCl2 and 48 g NaCl in 800 g water, with a pH of 1.2; or 6% w/w citric acid and 6% w/w ascorbic acid; or 4.64% sodium ascorbate having 4.13% ascorbic acid and 1.18% NaCo3.
Bramley apples were preserved with the fresh produce preservative as in Example 11a except that the preservative solution contained lithium ascorbate. The lithium ascorbate solution was prepared by adding 7.35 grams of lithium carbonate and 35 grams ascorbic acid to 800 grams water.
For comparison, apple slices were placed in one of several comparative solutions: a 5.0% w/w aqueous solution of calcium ascorbate dihydrate containing 42.5 grams of calcium ascorbate dihydrate and 800 grams water with a pH of 7; a 5.3% w/w solution of calcium ascorbate containing 44.94 grams of mixture of 9.95 grams calcium carbonate and 35 grams ascorbic acid in 800 grams water with a pH of 5.5; a comparative solution, containing 48 g ascorbic acid, 48 g citric acid, 16 g CaCl2, 48 g NaCl and 800 g water with a pH of 1.2; a comparative solution of sodium ascorbate containing 28.45 grams of sodium carbonate 35 grams ascorbic acid, 800 grams water having a pH of 6.8; a comparative solution of calcium ascorbate containing 8.75 grams of calcium carbonate, 35 grams ascorbic acid, and to 800 grams water; a comparative solution of calcium ascorbate containing 9.95 grams of calcium carbonate, 35 grams ascorbic acid, and 765 grams water; a comparative solution of magnesium ascorbate containing 9.66 grams of hydrated magnesium carbonate 4MgCO3.Mg(OH)25H2O, 35 grams ascorbic acid, 765 grams water, having a pH of 6.4; and a comparative solution of zinc ascorbate containing 35 grams ascorbic acid, 12.74 grams zinc carbonate and 765 grams water, with a pH of 5.5. The apple slices were evaluated on day five.

Bramley apples [2] = experiment: Water released by sliced Bramley apples
Method: as §1, §2
as §3, with “NaCo3. […]” for “NaCo3.”

Compound	Texture (Bramley apples [1]; 4 hr at 4° C.)	Texture (Bramley apples [1]; 28 hr at 4° C.)	Texture (Bramley apples [1]; 52 hr at 4° C.)	Texture (Bramley apples [1]; 94 hr at 4° C.)	Texture (Bramley apples [1]; 191 hr at 4° C.)	Appearance (visual inspection) (Bramley apples [1]; 335 hr at 4° C.)	Color (Bramley apples [1]; Day 5)	Texture (Bramley apples [1]; Day 5)	Water Released (Bramley apples [2]; 4 hr at 4° C.) [g]	Water Released (Bramley apples [2]; 28 hr at 4° C.) [g]	Water Released (Bramley apples [2]; 52 hr at 4° C.) [g]	Water Released (Bramley apples [2]; 94 hr at 4° C.) [g]	Water Released (Bramley apples [2]; 191 hr at 4° C.) [g]	Water Released (Bramley apples [2]; 335 hr at 4° C.) [g]	Texture (Bramley apples [1]; 335 hr at 4° C.)
O=C1O[C@H]([C@@H](O)CO)C([O-])=C1O.[Na+] [Sodium Ascorbate, sodium ascorbate]	Firm	Firm	Firm	Firm	Firm	Internal browning on some	White	Firm	6.58	6.74	6.67	4.87	4.08	3.77	
magnesium ascorbate		Firm	Firm	Firm	Firm	Good color	White	Very Firm	6.54	7.07	6.43	4.75	3.73	2.17	Firm and crisp
calcium ascorbate dihydrate		Firm	Firm	Firm	Firm	Good condition	White	Very Firm	6.84	5.88	5.56	4.00	2.67	1.33	Firm
zinc ascorbate							Brown	Very Soft							
